Assay results as given in PubChem BioAssay AID270 (DTP/NCI, 2004).
“And” between values parts separate entries of the source, which are not always exact repeats. Equal entries are not always repeated. Results filed as inconclusive are left out.

Tested on: BDF1 mice, s.c. Lewis lung carcinoma, T/C %
Assay: NCI In Vivo Anticancer Drug Screen. Data for tumor model Lewis Lung Carcinoma (subcutaneous) in B6D2F1 (BDF1) mice
In short: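 First, mice carry a transplantable tumor. Next, groups receive either compound or vehicle. Finally, survival or tumor dimensions in the dosed animals are divided by the corresponding control figure.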

[1] = endpoint: mean tumor weight, dose: 500.0 mg/kg/injection, schedule: Q01DX011 (ip), vehicle: saline, higher = larger tumour

## O=CNCCNC=O
endpoint: mean tumor weight, dose: 148.0 mg/kg/injection, schedule: Q01DX011 (ip), vehicle: saline, higher = larger tumour
  T/C: 96 % of control
endpoint: mean tumor weight, dose: 333.0 mg/kg/injection, schedule: Q01DX011 (ip), vehicle: saline, higher = larger tumour
  T/C: 98 % of control
[1]
  T/C: 115 % of control

## O=[N+]([O-])c1cccc([N+](=O)[O-])c1Cl
endpoint: mean tumor weight, dose: 37.0 mg/kg/injection, schedule: Q01DX011 (ip), vehicle: other, higher = larger tumour
  T/C: 116 % of control
endpoint: mean tumor weight, dose: 55.0 mg/kg/injection, schedule: Q01DX011 (ip), vehicle: other, higher = larger tumour
  T/C: 89 % of control

## CCC(=O)O[C@H]1CC[C@H]2[C@@H]3CCC4=CC(=O)CC[C@]4(C)[C@H]3CC[C@]12C
endpoint: mean tumor weight, dose: 125.0 mg/kg/injection, schedule: Q01DX011 (ip), vehicle: steriod suspending solution, higher = larger tumour
  T/C: 86 % of control
endpoint: mean tumor weight, dose: 250.0 mg/kg/injection, schedule: Q01DX011 (ip), vehicle: steriod suspending solution, higher = larger tumour
  T/C: 70 % of control
endpoint: mean tumor weight, dose: 500.0 mg/kg/injection, schedule: Q01DX011 (ip), vehicle: steriod suspending solution, higher = larger tumour
  T/C: 84 % of control
endpoint: median survival time, dose: 40.0 mg/kg/injection, schedule: Q02DX009 (ip), vehicle: Klucel (hydroxypropylcellulose) (HPC), higher = longer survival
  T/C: 90 % of control
endpoint: median survival time, dose: 80.0 mg/kg/injection, schedule: Q02DX009 (ip), vehicle: Klucel (hydroxypropylcellulose) (HPC), higher = longer survival
  T/C: 97 % of control
endpoint: median survival time, dose: 160.0 mg/kg/injection, schedule: Q02DX009 (ip), vehicle: Klucel (hydroxypropylcellulose) (HPC), higher = longer survival
  T/C: 103 % of control
endpoint: median survival time, dose: 320.0 mg/kg/injection, schedule: Q02DX009 (ip), vehicle: Klucel (hydroxypropylcellulose) (HPC), higher = longer survival
  T/C: 90 % of control

## c1ccc2nc3ccccc3c-2cc1
endpoint: mean tumor weight, dose: 125.0 mg/kg/injection, schedule: Q01DX011 (ip), vehicle: saline, higher = larger tumour
  T/C: 90 % of control
endpoint: mean tumor weight, dose: 250.0 mg/kg/injection, schedule: Q01DX011 (ip), vehicle: saline, higher = larger tumour
  T/C: 76 % of control
[1]
  T/C: 48 % of control
endpoint: mean tumor weight, dose: 1000.0 mg/kg/injection, schedule: Q01DX011 (ip), vehicle: saline, higher = larger tumour
  T/C: 56 % of control

## O=c1cc[nH]c(=O)o1
endpoint: median survival time, dose: 1.5 mg/kg/injection, schedule: Q01DX009 (ip), vehicle: water, higher = longer survival
  T/C: 102 % of control
endpoint: median survival time, dose: 3.0 mg/kg/injection, schedule: Q01DX009 (ip), vehicle: water, higher = longer survival
  T/C: 95 % of control
endpoint: median survival time, dose: 3.12 mg/kg/injection, schedule: Q01DX008 (ip), vehicle: water, higher = longer survival
  T/C: 93 % of control
endpoint: median survival time, dose: 3.12 mg/kg/injection, schedule: Q01DX009 (ip), vehicle: water, higher = longer survival
  T/C: 114 % of control
endpoint: median survival time, dose: 6.0 mg/kg/injection, schedule: Q01DX009 (ip), vehicle: water, higher = longer survival
  T/C: 94 % of control
endpoint: median survival time, dose: 6.25 mg/kg/injection, schedule: Q01DX008 (ip), vehicle: water, higher = longer survival
  T/C: 118 % of control
endpoint: median survival time, dose: 6.25 mg/kg/injection, schedule: Q01DX009 (ip), vehicle: water, higher = longer survival
  T/C: 108 % of control and 243 % of control
endpoint: median survival time, dose: 12.0 mg/kg/injection, schedule: Q01DX009 (ip), vehicle: water, higher = longer survival
  T/C: 106 % of control and 108 % of control
endpoint: median survival time, dose: 12.5 mg/kg/injection, schedule: Q01DX008 (ip), vehicle: water, higher = longer survival
  T/C: 114 % of control
endpoint: median survival time, dose: 12.5 mg/kg/injection, schedule: Q01DX009 (ip), vehicle: water, higher = longer survival
  T/C: 103 % of control and 243 % of control
endpoint: median survival time, dose: 24.0 mg/kg/injection, schedule: Q01DX009 (ip), vehicle: water, higher = longer survival
  T/C: 98 % of control and 116 % of control
endpoint: median survival time, dose: 25.0 mg/kg/injection, schedule: Q01DX008 (ip), vehicle: water, higher = longer survival
  T/C: 112 % of control
endpoint: median survival time, dose: 25.0 mg/kg/injection, schedule: Q01DX009 (ip), vehicle: water, higher = longer survival
  T/C: 107 % of control

## CC[C@](O)(C(=O)O)c1cc2n(c(=O)c1CO)Cc1cc3ccccc3nc1-2
endpoint: median survival time, dose: 1.0 mg/kg/injection, schedule: Q01DX009 (ip), vehicle: saline, higher = longer survival
  T/C: 117 % of control
endpoint: median survival time, dose: 2.0 mg/kg/injection, schedule: Q01DX009 (ip), vehicle: saline, higher = longer survival
  T/C: 92 % of control

## Cn1cnc2c1c(=O)[nH]c(=O)n2C
endpoint: mean tumor weight, dose: 50.0 mg/kg/injection, schedule: Q01DX011 (ip), vehicle: saline, higher = larger tumour
  T/C: 74 % of control
endpoint: mean tumor weight, dose: 100.0 mg/kg/injection, schedule: Q01DX011 (ip), vehicle: saline, higher = larger tumour
  T/C: 72 % of control
endpoint: mean tumor weight, dose: 200.0 mg/kg/injection, schedule: Q01DX011 (ip), vehicle: saline, higher = larger tumour
  T/C: 85 % of control
endpoint: mean tumor weight, dose: 400.0 mg/kg/injection, schedule: Q01DX011 (ip), vehicle: saline, higher = larger tumour
  T/C: 84 % of control

## [I][Hg][CH2]C1COCC([CH2][Hg][I])O1.[I][Hg][CH2]C1COCC([CH2][Hg][I])O1 (stereo not drawn)
endpoint: mean tumor weight, dose: 19.0 mg/kg/injection, schedule: Q01DX011 (ip), vehicle: other, higher = larger tumour
  T/C: 80 % of control
endpoint: mean tumor weight, dose: 29.0 mg/kg/injection, schedule: Q01DX011 (ip), vehicle: other, higher = larger tumour
  T/C: 57 % of control
endpoint: mean tumor weight, dose: 66.0 mg/kg/injection, schedule: Q01DX011 (ip), vehicle: other, higher = larger tumour
  T/C: 36 % of control
